Experiment [1] has as its target T1, Phosphatidylinositol 4,5-bisphosphate 3-kinase catalytic subunit gamma isoform (Homo sapiens, UniProt P48736). Description: Inhibition of PI3Kgamma by high throughput chemoproteomics binding assay.
Experiment [2] addresses T2, Phosphatidylinositol 4,5-bisphosphate 3-kinase catalytic subunit delta isoform (Homo sapiens, UniProt O00329).
T2 sequence (O00329 whole entry): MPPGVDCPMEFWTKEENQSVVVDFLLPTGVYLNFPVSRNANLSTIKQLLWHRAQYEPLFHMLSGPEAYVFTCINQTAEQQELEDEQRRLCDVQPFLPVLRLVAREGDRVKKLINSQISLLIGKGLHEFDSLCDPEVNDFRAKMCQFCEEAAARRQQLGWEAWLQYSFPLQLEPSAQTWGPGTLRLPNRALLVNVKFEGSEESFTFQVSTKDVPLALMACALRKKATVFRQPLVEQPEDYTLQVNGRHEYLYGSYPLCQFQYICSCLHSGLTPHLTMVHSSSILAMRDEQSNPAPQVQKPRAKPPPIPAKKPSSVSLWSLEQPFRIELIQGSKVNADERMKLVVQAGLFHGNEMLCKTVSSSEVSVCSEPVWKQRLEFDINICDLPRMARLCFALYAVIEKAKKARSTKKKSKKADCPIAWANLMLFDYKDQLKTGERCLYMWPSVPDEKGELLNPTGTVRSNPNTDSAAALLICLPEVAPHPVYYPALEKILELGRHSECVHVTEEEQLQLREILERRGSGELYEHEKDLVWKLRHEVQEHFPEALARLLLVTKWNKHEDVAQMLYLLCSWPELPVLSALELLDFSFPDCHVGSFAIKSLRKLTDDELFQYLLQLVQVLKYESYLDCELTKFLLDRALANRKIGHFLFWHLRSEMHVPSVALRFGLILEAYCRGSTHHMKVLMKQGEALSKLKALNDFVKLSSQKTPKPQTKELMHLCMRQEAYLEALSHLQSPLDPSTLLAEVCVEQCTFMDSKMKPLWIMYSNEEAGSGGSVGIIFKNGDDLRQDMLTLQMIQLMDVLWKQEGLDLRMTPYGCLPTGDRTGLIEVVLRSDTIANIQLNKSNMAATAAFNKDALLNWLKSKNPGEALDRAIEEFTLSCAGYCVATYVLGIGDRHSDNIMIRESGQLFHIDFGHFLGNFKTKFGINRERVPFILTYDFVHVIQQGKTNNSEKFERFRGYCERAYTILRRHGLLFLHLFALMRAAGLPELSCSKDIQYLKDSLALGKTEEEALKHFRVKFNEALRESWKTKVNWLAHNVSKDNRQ
Description: Inhibition of PI3Kdelta by high throughput chemoproteomics binding assay.

Experiment [3] concerns the target Phosphatidylinositol 4,5-bisphosphate 3-kinase catalytic subunit alpha isoform (Homo sapiens, UniProt P42336). Description: Inhibition of PI3Kalpha by high throughput chemoproteomics binding assay.
For experiment [4], the target named is T1, Phosphatidylinositol 4,5-bisphosphate 3-kinase catalytic subunit gamma isoform. Description: Inhibition of PI3Kgamma assessed as inhibition of C5a-induced AKT phosphorylation at Ser473 by cell based assay.
The target of experiment [5] is Phosphatidylinositol 4,5-bisphosphate 3-kinase catalytic subunit beta isoform (Homo sapiens, UniProt P42338). Description: Inhibition of PI3Kbeta by high throughput chemoproteomics binding assay.
Sequence of Phosphatidylinositol 4,5-bisphosphate 3-kinase catalytic subunit beta isoform (P42338 whole entry, canonical isoform): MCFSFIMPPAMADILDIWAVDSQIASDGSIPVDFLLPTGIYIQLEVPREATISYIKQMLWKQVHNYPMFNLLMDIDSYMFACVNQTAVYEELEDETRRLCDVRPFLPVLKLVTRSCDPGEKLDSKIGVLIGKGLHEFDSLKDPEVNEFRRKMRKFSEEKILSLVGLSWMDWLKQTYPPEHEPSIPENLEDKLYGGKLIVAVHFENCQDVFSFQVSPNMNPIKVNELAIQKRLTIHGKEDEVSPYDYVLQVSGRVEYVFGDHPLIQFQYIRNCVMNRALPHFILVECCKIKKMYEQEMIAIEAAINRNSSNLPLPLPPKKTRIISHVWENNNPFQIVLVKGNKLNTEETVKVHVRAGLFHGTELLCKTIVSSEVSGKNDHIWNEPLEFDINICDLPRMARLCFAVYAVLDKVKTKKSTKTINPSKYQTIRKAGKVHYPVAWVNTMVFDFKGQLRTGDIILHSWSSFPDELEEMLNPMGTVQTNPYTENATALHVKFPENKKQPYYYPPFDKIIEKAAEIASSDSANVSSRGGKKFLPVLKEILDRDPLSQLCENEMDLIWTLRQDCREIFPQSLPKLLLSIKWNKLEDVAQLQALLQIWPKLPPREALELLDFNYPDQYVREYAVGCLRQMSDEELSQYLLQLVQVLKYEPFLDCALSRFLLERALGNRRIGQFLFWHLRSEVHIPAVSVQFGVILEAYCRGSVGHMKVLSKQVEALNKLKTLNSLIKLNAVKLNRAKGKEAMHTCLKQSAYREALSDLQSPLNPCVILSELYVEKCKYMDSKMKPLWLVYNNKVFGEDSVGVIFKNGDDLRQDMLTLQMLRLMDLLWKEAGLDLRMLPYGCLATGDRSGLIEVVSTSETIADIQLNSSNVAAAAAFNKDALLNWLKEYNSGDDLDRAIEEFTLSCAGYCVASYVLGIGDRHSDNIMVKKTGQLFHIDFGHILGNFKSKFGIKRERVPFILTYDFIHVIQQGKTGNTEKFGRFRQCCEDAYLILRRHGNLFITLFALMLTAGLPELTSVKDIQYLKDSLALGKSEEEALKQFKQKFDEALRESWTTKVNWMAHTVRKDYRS

39 compounds from ChEMBL document CHEMBL2062454, “SAR studies around a series of triazolopyridines as potent and selective PI3Kγ inhibitors” (Bioorg Med Chem Lett, 2012) can be followed below.

pIC50: −log10 of the molar value.

T1 sequence (P48736 whole entry, canonical isoform): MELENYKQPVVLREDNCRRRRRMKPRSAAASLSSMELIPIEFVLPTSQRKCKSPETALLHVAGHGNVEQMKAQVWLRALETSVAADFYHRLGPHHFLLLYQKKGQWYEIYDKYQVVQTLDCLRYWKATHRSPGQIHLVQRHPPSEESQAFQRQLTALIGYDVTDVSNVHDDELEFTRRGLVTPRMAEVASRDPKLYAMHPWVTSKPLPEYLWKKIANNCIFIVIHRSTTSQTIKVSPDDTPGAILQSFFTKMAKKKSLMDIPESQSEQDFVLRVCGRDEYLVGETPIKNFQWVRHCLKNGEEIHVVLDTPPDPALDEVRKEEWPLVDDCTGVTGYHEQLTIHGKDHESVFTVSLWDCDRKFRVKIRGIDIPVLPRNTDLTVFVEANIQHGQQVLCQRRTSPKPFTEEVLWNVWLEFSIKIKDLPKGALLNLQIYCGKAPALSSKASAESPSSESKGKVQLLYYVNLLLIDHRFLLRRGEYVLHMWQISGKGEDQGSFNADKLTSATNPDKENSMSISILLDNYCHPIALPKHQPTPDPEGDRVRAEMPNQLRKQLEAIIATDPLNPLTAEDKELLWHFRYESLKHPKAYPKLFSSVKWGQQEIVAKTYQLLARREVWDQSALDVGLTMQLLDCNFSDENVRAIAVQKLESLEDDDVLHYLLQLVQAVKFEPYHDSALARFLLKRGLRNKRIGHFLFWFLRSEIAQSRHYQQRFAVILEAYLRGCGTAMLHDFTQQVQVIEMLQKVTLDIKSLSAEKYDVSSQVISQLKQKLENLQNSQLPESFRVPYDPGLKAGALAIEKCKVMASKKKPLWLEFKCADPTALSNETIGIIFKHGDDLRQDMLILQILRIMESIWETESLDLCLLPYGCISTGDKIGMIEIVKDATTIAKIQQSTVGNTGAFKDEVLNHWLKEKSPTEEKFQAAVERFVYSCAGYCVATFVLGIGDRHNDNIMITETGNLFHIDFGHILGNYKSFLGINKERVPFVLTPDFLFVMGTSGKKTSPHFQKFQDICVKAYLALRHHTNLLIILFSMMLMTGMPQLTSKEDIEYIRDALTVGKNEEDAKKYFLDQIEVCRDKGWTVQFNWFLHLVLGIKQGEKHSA
Sequence of Phosphatidylinositol 4,5-bisphosphate 3-kinase catalytic subunit alpha isoform (P42336 whole entry, canonical isoform): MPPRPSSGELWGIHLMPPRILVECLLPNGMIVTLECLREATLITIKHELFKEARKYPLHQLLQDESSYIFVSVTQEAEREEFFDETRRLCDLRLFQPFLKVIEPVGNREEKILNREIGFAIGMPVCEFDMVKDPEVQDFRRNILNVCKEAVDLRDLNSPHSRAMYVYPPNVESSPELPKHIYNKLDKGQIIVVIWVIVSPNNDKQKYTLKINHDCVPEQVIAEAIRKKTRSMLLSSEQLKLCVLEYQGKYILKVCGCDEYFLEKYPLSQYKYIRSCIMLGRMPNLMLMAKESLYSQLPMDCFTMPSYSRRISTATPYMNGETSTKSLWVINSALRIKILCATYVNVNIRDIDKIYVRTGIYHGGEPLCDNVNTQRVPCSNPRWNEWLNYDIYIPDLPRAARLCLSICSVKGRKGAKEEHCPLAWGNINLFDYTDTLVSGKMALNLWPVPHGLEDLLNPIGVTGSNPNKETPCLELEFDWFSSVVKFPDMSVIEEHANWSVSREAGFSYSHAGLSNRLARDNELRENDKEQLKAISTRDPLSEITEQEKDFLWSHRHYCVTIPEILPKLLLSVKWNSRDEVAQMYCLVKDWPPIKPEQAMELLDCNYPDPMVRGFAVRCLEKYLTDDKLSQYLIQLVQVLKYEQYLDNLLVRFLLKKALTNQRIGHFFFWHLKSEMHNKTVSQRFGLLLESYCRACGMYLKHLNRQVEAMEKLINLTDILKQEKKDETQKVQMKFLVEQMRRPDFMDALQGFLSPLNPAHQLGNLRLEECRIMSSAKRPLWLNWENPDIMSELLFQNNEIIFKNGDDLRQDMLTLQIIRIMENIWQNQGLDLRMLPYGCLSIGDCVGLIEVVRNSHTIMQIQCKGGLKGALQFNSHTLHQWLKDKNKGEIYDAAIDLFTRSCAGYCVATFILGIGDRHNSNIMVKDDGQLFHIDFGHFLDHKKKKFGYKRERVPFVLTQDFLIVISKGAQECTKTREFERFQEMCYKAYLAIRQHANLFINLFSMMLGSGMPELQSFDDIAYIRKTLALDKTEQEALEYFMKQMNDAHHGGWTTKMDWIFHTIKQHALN

The term pIC50 denotes the negative decadic logarithm of the IC50, by convention in mol/L. For `CC(=O)Nc1nc2ccc(-c3cccc(S(C)(=O)=O)c3)cn2n1`, the negative logarithm of the IC50 (pIC50) was 6.30 in experiment [1], 5.50 in experiment [2], less than 4.30 in experiment [3] and less than 4.90 in experiment [4].
As to `CS(=O)(=O)Nc1cccc(-c2ccc3nc(NC(=O)C4CCCCC4)nn3c2)c1`, the pIC50 in experiment [1] is 6.50; in experiment [2] it was 6.30; in experiment [3] it was less than 4.00.
For `CNS(=O)(=O)c1ccc(-c2ccc3nc(NC(C)=O)nn3c2)cc1` the same measures were less than 4.30, less than 4.00 and less than 4.00.
For `CC(C)(C)NS(=O)(=O)c1cncc(-c2cn3nc(N)nc3cc2F)c1`, the pIC50 in experiment [1] was 4.60; in experiment [2], less than 4.00; in experiment [3] it was less than 4.00; in experiment [5], less than 4.00.
Consider `CS(=O)(=O)c1cncc(-c2cc(C(F)(F)F)c3nc(N)nn3c2)c1`, for which the pIC50 in experiment [1], in experiment [2] and in experiment [3] was less than 4.00 in each case.
With `CC(=O)Nc1nc2ccc(-c3sc(C)nc3C)cn2n1`, the pIC50 in experiment [1] is less than 4.90; in experiment [2], less than 4.00; in experiment [3] it was 5.20.
Turning to `CC(=O)Nc1nc2ccc(-c3cncc4ccccc34)cn2n1`, the pIC50 in experiment [1] is 5.50; in experiment [2] it was less than 4.00; in experiment [3], less than 4.00.
`CS(=O)(=O)c1cncc(-c2ccc3nc(N)nn3c2)c1`: in experiment [4], the pIC50 was 5.70.
Consider `CCCCNS(=O)(=O)c1cccc(-c2ccc3nc(NC(C)=O)nn3c2)c1`, for which the pIC50 in experiment [1] was 6.70; in experiment [2], 5.90; in experiment [3], 5.00.
For `CC(=O)Nc1nc2ccc(-c3cccc(-c4ccccc4)c3)cn2n1` the same measures were less than 5.40, less than 4.00 and less than 4.70.
Taken in the same sequence, the figures for `COc1ccc(-c2ccc3nc(NC(C)=O)nn3c2)cc1OC` were 7.40, 5.70 and 6.50.
Consider `Nc1nc2ccc(-c3cncc(S(=O)(=O)NCc4ccccc4)c3)cn2n1`, for which the pIC50 in experiment [1] is 6.60; in experiment [2], 5.10; in experiment [3] it was less than 4.70; in experiment [4] it was 5.90.
Take `CC(=O)Nc1nc2c(C)cc(-c3cncc(S(C)(=O)=O)c3)cn2n1`: the pIC50 was 7.00 in experiment [1], less than 5.30 in experiment [2], less than 4.40 in experiment [3] and 4.70 in experiment [5].
For `CC(=O)Nc1nc2ccc(-c3ccsc3)cn2n1`, the pIC50 in experiment [1] was 6.40; in experiment [2] it was less than 4.70; in experiment [3] it was 6.70.
For the compound `COc1ccc(-c2ccc3nc(NC(C)=O)nn3c2)cc1`, the pIC50 in experiment [1] is 6.00; in experiment [2], 4.50; in experiment [3], 4.60.
For the compound `CS(=O)(=O)c1cncc(-c2cc(Cl)c3nc(N)nn3c2)c1`, the pIC50 is 5.70 in experiment [1], less than 4.00 in experiment [2], less than 4.00 in experiment [3] and less than 4.00 in experiment [5].
For `CC(=O)Nc1nc2ccc(-c3cccc(S(=O)(=O)NCc4ccccc4)c3)cn2n1`, the pIC50 is 6.30 in experiment [1], 5.20 in experiment [2] and less than 4.00 in experiment [3].
Taken in the same sequence, the figures for `CC(=O)Nc1nc2ccc(-c3cnn(C)c3)cn2n1` were 5.40, less than 4.00 and less than 4.20.
Taken in the same sequence, the figures for `CS(=O)(=O)Nc1nc2ccc(-c3cncc(S(C)(=O)=O)c3)cn2n1` were less than 4.40, less than 4.00 and less than 4.00.
For `CC(=O)Nc1nc2ccc(-c3cccc(NS(C)(=O)=O)c3)cn2n1`, the pIC50 in experiment [1] is 6.50; in experiment [2] it was 5.30; in experiment [3] it was 5.30.
For the compound `CNC(=O)c1cccc(-c2ccc3nc(NC(C)=O)nn3c2)c1`, the figures for the pIC50 in experiment [1], in experiment [2] and in experiment [3] were 6.20, less than 4.00 and less than 4.30, respectively.
Taken in the same sequence, the figures for `CC(=O)Nc1nc2ccc(-c3ccncc3)cn2n1` were 5.80, less than 4.00 and 5.80.
For `CNS(=O)(=O)c1cccc(-c2ccc3nc(NC(C)=O)nn3c2)c1` the same measures were 6.60, 6.00 and less than 5.00.
For `CN(C)c1nc2ccc(-c3cncc(S(C)(=O)=O)c3)cn2n1` the same measures were 5.50, less than 4.00 and less than 4.00.
In the case of `CC(=O)Nc1nc2ccc(-c3cncc(S(C)(=O)=O)c3)c(C)n2n1`, the negative logarithm of the IC50 (pIC50) in experiment [1] was 6.00; in experiment [2], less than 4.40; in experiment [3], less than 4.00; in experiment [5], 4.60.
For the compound `Nc1nc2ccc(-c3cncc(S(=O)(=O)NCC4CC4)c3)cn2n1`, the pIC50 was 7.80 in experiment [1], less than 5.20 in experiment [2], 5.50 in experiment [3] and 5.70 in experiment [4].
Take `CNc1nc2ccc(-c3cncc(S(C)(=O)=O)c3)cn2n1`: the pIC50 is 6.50 in experiment [1], less than 4.60 in experiment [2] and less than 5.40 in experiment [3].
Regarding `CC(=O)Nc1nc2cc(C)c(-c3cncc(S(C)(=O)=O)c3)cn2n1`, the pIC50 in experiment [1] was less than 4.00; in experiment [2] it was less than 4.00; in experiment [3], less than 4.00; in experiment [5], 3.70.
Turning to `COc1ccc(-c2ccc3nc(NC(C)=O)nn3c2)cc1S(=O)(=O)NCc1ccccc1`, the pIC50 in experiment [1] was less than 4.00; in experiment [2] it was less than 5.00; in experiment [3] it was less than 4.00.
For the compound `COc1cccc(-c2ccc3nc(NC(C)=O)nn3c2)c1`, the figures for the pIC50 in experiment [1], in experiment [2] and in experiment [3] were 6.80, less than 4.10 and less than 4.10, respectively.
In the case of `CC(=O)Nc1nc2ccc(-c3ccc(S(C)(=O)=O)cc3)cn2n1`, the pIC50 in experiment [1], in experiment [2] and in experiment [3] was less than 4.00 each time.
Regarding `COc1cncc(-c2ccc3nc(NC(C)=O)nn3c2)c1`, the results for the pIC50 in experiment [1], in experiment [2] and in experiment [3] were 7.20, less than 5.00 and less than 5.40, respectively.
For the compound `CC(=O)Nc1nc2ccc(-c3cncnc3)cn2n1`, the pIC50 in experiment [1] is 5.40; in experiment [2] it was less than 4.00; in experiment [3] it was less than 4.80.
`CC(=O)Nc1nc2c(F)cc(-c3cncc(S(C)(=O)=O)c3)cn2n1`: the pIC50 in experiment [1] was 6.90; in experiment [2], less than 4.70; in experiment [3] it was less than 4.70; in experiment [5] it was 4.70.
Consider `CC(C)(C)S(=O)(=O)c1cncc(-c2ccc3nc(N)nn3c2)c1`, for which the pIC50 is 6.80 in experiment [1], 5.50 in experiment [2], less than 4.80 in experiment [3] and less than 5.00 in experiment [4].
For the compound `CC(=O)Nc1nc2ccc(-c3cncc(CS(N)(=O)=O)c3)cn2n1`, the pIC50 in experiment [1] is 8.10; in experiment [2] it was less than 6.00; in experiment [3], less than 7.00.
For `CC(=O)Nc1nc2ccc(-c3cncc(S(=O)(=O)NCc4ccccc4)c3)cn2n1` the same measures were 7.40, 5.50 and less than 5.50.
Turning to `Nc1nc2ccc(-c3cncc(S(=O)(=O)Nc4ccc(Cl)cc4)c3)cn2n1`, the pIC50 is 6.20 in experiment [1], 5.20 in experiment [2], 5.40 in experiment [3] and less than 4.90 in experiment [4].
Turning to `CC(=O)N(C)c1nc2ccc(-c3cccc(S(C)(=O)=O)c3)cn2n1`, the pIC50 in experiment [1] is less than 4.50; in experiment [2] it was less than 4.00; in experiment [3], less than 4.00.
